Assay results published in paper PMC10988555, “Exploiting Co(III)-Cyclopentadienyl Complexes To Develop Anticancer Agents” (Inorganic Chemistry, 2024).

Legend:
[1] = system: normal human primary dermal fibroblasts; assay: Antiproliferative activity, MTS assay, healthy fibroblasts; type: cell-based; conditions: 48 h exposure, healthy human cells
Experimental: (§1) Human colorectal carcinoma cell line (HCT116), human breast cancer cell lines (MDA-MB-231 and MCF-7), and normal human primary dermal fibroblasts neonatal (PCS-201-010) cell line were grown in DMEM (Dulbecco’s modified Eagle’s medium) (Invitrogen Corp., Grand Island, NY, USA) supplemented with 10% (v/v) fetal bovine serum and 1% (v/v) antibiotic/antimycotic solution (Invitrogen Corp.). The human ovarian carcinoma (A2780) cell line was cultivated using RPMI (Roswell Park Memorial Institute) medium supplemented as in DMEM medium. The supplemented medium is named a complete medium. Cells were grown in an incubator with a humidified atmosphere at 5% (v/v) CO2 and 37 °C. All cell lines were purchased from ATCC (ATCC, American Type Culture Collection).
(§2) The evaluation of the cytotoxic potential of complexes 1–4 was obtained through in vitro measurements of the antiproliferative activity of these complexes. Cells were plated in 96-well plates at 7.5 × 10^4 cells/mL and incubated at 37 °C with 5% (v/v) CO2. After 24 h, the culture medium was replaced with fresh medium (100 μL) containing 0.1–50 μM of the different complexes and incubated for 48 h in tumor cell lines or containing 0.1–100 μM of the different complexes and incubated for 48 h in fibroblasts. […] The fibroblast cell line was used as a control of the cytotoxicity of the complexes for healthy cells. Cell viability was evaluated using Cell Titer 96 Aqueous Non-Radioactive Cell Proliferation Assay (Promega, Madison, WI, USA) using 3-(4,5-dimethylthiazol-2-yl)-5-(3-carboxymethoxyphenyl)-2-(4-sulfophenyl)-2H-tetrazolium inner salt (MTS), as described previously.[60] In metabolically active cells, enzymes present in the mitochondria catalyze a reaction in which NADPH/NADH is produced. These enzymes reduce the MTS reagent into a brownish product, Formazan, which can be quantified by measuring the absorbance at 490 nm. The quantity of formazan produced is directly proportional to the number of viable cells in the culture. This quantification was executed with a Biorad microplate reader Model 680 (Bio-Rad, Hercules, CA, USA). Half maximal inhibitory concentration (IC50) was calculated using GraphPad Prism 6 (GraphPadSoftware). We have calculated the ratio between the IC50 of fibroblasts and the IC50 of HCT116, A2780, MDA-MB-231, or MCF-7 cell lines for complexes 1–4 that was named herein as the Selectivity index (SI). To ensure the solubility of the complexes in all biological assays, complex solutions were freshly prepared and well solubilized before addition to the cells.

[2] = system: MDA-MB-231 (human breast cancer) cell line; assay: Antiproliferative activity, MTS assay, MDA-MB-231; type: cell-based; conditions: 48 h exposure
Experimental: as §1, §2

A2780 cell line [3] = assay: Apoptosis induction, Annexin V/PI flow cytometry; type: cell-based, human; conditions: A2780, IC50 of each complex, 48 h
Experimental: The induction of apoptosis was evaluated by flow cytometry in the A2780 cell line, through the Alexa Fluor Annexin V/Dead Cell Apoptosis Kit (ThermoFisher Scientific). A2780 cells were seeded at a density of 2 × 10^5 cells/well in 6-well plates and incubated for 24 h. After that time, the medium was replaced by medium mixed with complexes 2–4 at their IC50. […] After a period of 48 h of incubation, cells were washed with PBS 1× and TE was used to detach the cells. The cells were resuspended in annexin-binding buffer 1× and incubated for 15 min at RT with Alexa Fluor 488 annexin V and Propidium Iodide. All samples were analyzed by an Attune Acoustic Focusing Flow Cytometer (ThermoFisher Scientific) and respective software.

DNA of A2780 cells = assay: Single-cell gel electrophoresis (comet assay); type: cell-based, human; conditions: for fold increase in DNA in the tail compared to DMSO control: A2780, 10× IC50, 12 h; for % of DNA in the tail: A2780, complexes 10× IC50 for 12 h, H2O2 0.05% for 30 min at RT
Experimental: A2780 cells were seeded in 6-well plates with a density of 1 × 10^6 cells/well and incubated for 24 h in an incubator with a humidified atmosphere at 5% (v/v) CO2 and 37 °C. […] The complexes and DMSO were incubated at 37 °C for 12 h and H2O2 for 30 min at RT. Cells were harvested with a cell scraper and solutions with 1 × 10^5 cells/mL in PBS were prepared. It was withdrawn 10 μL from the solutions and added to 90 μL of 1.5% (w/v) low melting point agarose in 1× PBS and dropped on the slides prepared previously with a coating of 1.5% (w/v) agarose (normal melting point agarose) in 1× TAE buffer. After drying at 4 °C for 15 min, the slides were dipped into lysis solution (450 mM NaCl, 3.72% EDTA, 5 mM Tris; to which 10% (v/v) DMSO and 1% (v/v) Triton-X were added just before use) for 1 h at 4 °C, followed by their being dipped for 40 min into cold electrophoresis solution (1 mM EDTA, 300 mM NaOH, pH 13). Electrophoresis was performed at 4 °C for 30 min at 25 V using a Sub-Cell model 96 apparatus (Bio-Rad). Afterward, slides were placed in 0.1 M Tris–HCl buffer (pH 7.5) at 4 °C for 15 min for neutralization, followed by 15 min in methanol at 4 °C and drying at 37 °C. For visualization of comets, slides were hydrated with distilled water at 4 °C for 30 min, stained with 20 μL of GelRed working solution (3×), and covered with new coverslips. The slides were observed under a Ti–U Eclipse inverted microscope (Nikon Instruments, Japan) and analyzed by CometScore version 2.1 (TriTek). About 100 cells per sample were analyzed. The percentage of DNA in the tail was used as a measure of the total DNA strand breakage.

A2780 cell line [4] = assay: Mitochondrial membrane potential (ΔΨM), JC-1 flow cytometry; type: cell-based, human; conditions: A2780, IC50, 48 h, JC-1 red/green ratio vs DMSO
Experimental: ΔΨM was evaluated in the A2780 cell line using the JC-1 Mitochondrial Membrane Potential Assay Kit (Abnova, Taipei, Taiwan). Cells were seeded at a density of 2 × 10^5 cells/well in 6-well plates and incubated for 24 h. […] After an incubation of 48 h, the cells were washed with PBS 1×, detached with TE, and incubated with JC-1 in RPMI medium without phenol red + 5% (v/v) FBS for 20 min at 37 °C. The cells were then resuspended in the same medium and the ΔΨM was evaluated with the Attune acoustic focusing flow cytometer (ThermoFisher Scientific) and respective software.

Fibroblasts = assay: Cell migration (scratch) assay; type: cell-based, human; conditions: IC50 concentrations, 24 h, normalized against DMSO (100%)
Experimental: Fibroblasts were seeded in 24-well plates at a density of 4 × 10^5 cells/mL and grown in the same conditions as described previously until a confluent monolayer was obtained. […] Images of the Fibroblasts were captured right after the exposure (0 h) to the complexes and after 24 h of incubation at 37 °C and 5% (v/v) CO2 in a humidified atmosphere, using CytoSMART Lux2 Live Cell Imager (Axion biosystems, USA) and Ti–U Eclipse Inverted microscope (Nikon Instruments, Japan). Images were analyzed with the ImageJ MRO Wound Healing Tool or with the scratch assay measurement of the CytoSMART cloud portal for the Lux system.

Structure (SMILES) | IC50 [1] [µM] | IC50 [2] [µM] | percentage of cells in initial apoptosis (A2780 cell line [3]) [%] | percentage of cells in late apoptosis (A2780 cell line [3]) [%] | percentage of cells in necrosis (A2780 cell line [3]) [%] | total apoptosis levels (A2780 cell line [3]) [%] | fold increase in DNA in the tail compared to DMSO control (DNA of A2780 cells) [fold] | % of DNA in the tail (DNA of A2780 cells) [%] | mitochondrial membrane potential (ΔΨM) change (A2780 cell line [4]) | cellular remission (Fibroblasts) [%]
Nc1cc2cccnc2c2ncccc12.O=S(=O)([O-])C(F)(F)F.O=S(=O)([O-])C(F)(F)F.[Co+3].c1cc[cH-]c1.c1ccc(P(c2ccccc2)c2ccccc2)cc1 [Complex 4, [CoCp(PPh3)(NH2phen)][(CF3SO3)2]] | > 100 | > 50 | 5.6 | 0.9 | 5.9 | 6.5 | 4.4 | 56.4 | an increase in ΔΨM was observed | 78.1
O=S(=O)([O-])C(F)(F)F.O=S(=O)([O-])C(F)(F)F.[Co+3].c1cc[cH-]c1.c1ccc(P(c2ccccc2)c2ccccc2)cc1.c1cnc2c(c1)ccc1cccnc12 [Complex 3, [Co(η^5-C5H5)(PPh3)(phen)][(CF3SO3)2]] | > 100 | > 50 | 5.0 | 0.9 | 6.1 | 5.9 | 3.2 | 42.4 | low (without statistical significance) ΔΨM | 76.9
Cc1ccnc(-c2cc(C)ccn2)c1.O=S(=O)([O-])C(F)(F)F.O=S(=O)([O-])C(F)(F)F.[Co+3].c1cc[cH-]c1.c1ccc(P(c2ccccc2)c2ccccc2)cc1 [Complex 2, [Co(η^5-C5H5)(PPh3)(Me2bipy)][(CF3SO3)2]] | > 100 | > 50 | 5.0 | 0.8 | 7.8 | 5.8 | 3.1 | 39.7 | low (without statistical significance) ΔΨM | 80.2
